# Measurements published in patent publication US12329799B2, “Peptidyl inhibitors of calcineurin-NFAT interaction” (Ohio State Innovation Foundation, priority 2018, dated 2025).
# Read-outs that look alike come from different tables or passages of the source. Positions of bridges follow the written chain, without caps; N, C: chain ends. Non-standard residues stand in square brackets, D forms with d. Residues, ends and D or L forms follow the SMILES beside them. Chains are numbered I, II in the order given. *: point of attachment. FITC = O=C1OC2(c3ccc(O)cc3Oc3cc(O)ccc32)c2ccc(NC(=S)*)cc21; Benzoyl(2,3,4,5,6-F5) = O=C(c1c(F)c(F)c(F)c(F)c1F)*; Benzoyl(2,3-Cl2) = O=C(c1cccc(Cl)c1Cl)*; Phe(4-F) = N[C@@H](Cc1ccc(F)cc1)C(=O)O; 2Nal = N[C@@H](Cc1ccc2ccccc2c1)C(=O)O; Val(3-OH) = CC(C)(O)[C@H](N)C(=O)O; X4 = O=C(c1cc(F)c(F)c(F)c1F)*; Chg = N[C@H](C(=O)O)C1CCCCC1; Tle = CC(C)(C)[C@H](N)C(=O)O; X6 = O=C(c1ccc(Br)c(Cl)c1)*; X5 = Cc1ccc(C(=O)*)c(F)c1F; X1 = O=C(c1ccnc(Cl)c1Cl)*; AEEA = NCCOCCOCC(=O)O; βAla = NCCC(=O)O
# Experiments:
# [1] = Aqueous solubility (turbidity at 780 nm); type: physicochemical
# Protocol: The peptide was serially diluted from a DMSO stock into PBS (pH 7.4) containing 5% DMSO and the optical density of the resulting solutions were measured at 780 nm.
# Solubility. Peptides were diluted from a DMSO stock into PBS, pH 7.4 and then serially diluted in identical buffer to standardize DMSO concentration in clear, 96-well plates. The solutions were allowed to stand for 1 h at RT without mixing and then turbidity was measured at 780 nm using a Tecan Infinite M1000 plate reader.
# Calcineurin (GST-CN) = biological target: T1, Calcineurin (GST-CN) (Homo sapiens, UniProt Q08209); experiment: Direct binding of FITC-labeled peptides to CN by fluorescence anisotropy/polarization; conditions: for Kd: Table 5, acyl-ZIZITGPHEEYK(FITC)-NH2 peptides, FA
# T1 construct: made in house; host or cells: E. coli BL21
# Protocol: To facilitate concentration determination and binding analysis by fluorescence anisotropy (FA), a dipeptide Tyr-Lys was added to the C-terminus of ZIZIT (SEQ ID NO:1) and the lysine side chain was labeled with fluorescein isothiocyanate (FITC). The resulting peptide,
# Fluorescence Polarization. Fluorescence polarization (FP) experiments were carried out to measure binding affinity in both direct and competitive binding experiments using GST-CN and peptides prepared as mentioned previously. For direct binding, 50 nM FITC-labeled peptide was prepared in PBS, pH 7.4 containing 5 mM DTT and 0.01% Triton-X100 and then added to GST-CN diluted in PBS containing 0.01% Triton-X100. Solutions were incubated for 1 h at RT with gentle mixing and then pipetted into black 384-well microplates. Fluorescence polarization was measured on a TECAN Infinite M1000 plate reader and titration curves were fitted using both KaelidaGraph v 3.6 and GraphPad PRISM to the equation:
# [formula] • where FP is the measured fluorescence polarization, Amin is the minimum FP value, Amax is the maximum FP signal, Qb is the quantum yield of the bound fluorophore, Qf is the quantum yield of the free fluorophore, L is the ligand concentration, KD is the dissociation constant and x is the protein concentration.
# Caco-2 cell monolayers = experiment: Caco-2 permeability assay; type: in vitro ADME
# Protocol: Caco-2 permeability assay. To assay the permeability of test compounds by Caco-2 cell model, Caco-2 cells were cultured to confluency before being trypsinized and seeded onto filter transwell inserts at a density of 30,000 cells/well in DMEM medium. Cells were cultured in a humidified atmosphere with 5% CO2 at 37° C. After overnight attachment, cell medium was replaced with fresh medium at both apical and basolateral sides every other day. The cell monolayers are ready for the assay 20 days post seeding. […] The dosing solution at 10 μM was obtained by diluting 10 mM stock solution in HBSS medium (pH 7.4, 25 mM HEPES) freshly before the assay. Terfenadine (25 ng/mL) and Tolbutamide (50 ng/mL) were added into dosing solution as internal standards. […] The culture medium from either the basolateral side (plate B) or apical side (plate A) were aspirated and then rinsed with HBSS medium once. Afterwards, the dosing medium was added to either basolateral or apical side. Following the incubation, 100 microliter samples from both sides were harvested at time 0 and time 90 min. Samples were quenched with acetonitrile/methanol (1:1 v/v), centrifuged, and analyzed on a Shimadzu reversed-phase HPLC and Sciex API4500 Q trap instrument.
# Permeability parameters were calculated using the following equations and shown in Table 10: Papp=(Conc.receiver,90 min*Volumereceiver)/(Time*Membrane Area*Conc.donor,0 min) Efflux Ratio=Papp[B to A]/Papp[A to B]
# Serum stability assay = type: in vitro ADME; conditions: 37° C.
# Protocol: Serum Stability Assay. Diluted human serum (25%) (H4522 human serum, Sigma) was centrifuged at 15,000 rpm for 10 min, and the supernatant was collected. A peptide stock solution was diluted into the supernatant to a final concentration of 5 μM and incubated at 37° C. At various time points (0-24 h), 200-μL aliquots were withdrawn and mixed with 100 μL of 15% trichloroacetic acid and incubated at 4° C. overnight. The final mixture was centrifuged at 15,000 rpm for 10 min in a microcentrifuge, and the supernatant was analyzed by reversed-phase HPLC equipped with a C18 column. The amount of remaining peptide (%) was determined by integrating the area underneath the peptide peak (monitored at 214 nm) and comparing with that from the peptide at time 0.
# T1 sequence (Q08209 2-347 limits assumed): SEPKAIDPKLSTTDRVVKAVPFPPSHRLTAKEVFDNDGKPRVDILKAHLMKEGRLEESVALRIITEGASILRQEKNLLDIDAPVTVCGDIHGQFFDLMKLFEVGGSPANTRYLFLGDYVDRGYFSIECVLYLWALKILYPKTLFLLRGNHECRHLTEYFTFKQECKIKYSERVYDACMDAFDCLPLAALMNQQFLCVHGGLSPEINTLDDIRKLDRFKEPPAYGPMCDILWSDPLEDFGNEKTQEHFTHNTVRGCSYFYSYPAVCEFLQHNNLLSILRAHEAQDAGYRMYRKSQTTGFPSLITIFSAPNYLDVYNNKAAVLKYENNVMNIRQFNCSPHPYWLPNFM
compound,measurement,setting,value
"CC[C@H](C)[C@H](NC(=O)[C@@H](NC(=O)c1cccc(Cl)c1Cl)C(C)(C)C)C(=O)N[C@H](C(=O)N[C@H](C(=O)N[C@H](C(=O)N[C@@H](CCC(N)=O)C(=O)N[C@@H](Cc1c[nH]cn1)C(=O)N[C@H](CC(C)C)C(=O)N[C@@H](CO)C(=O)NCCC(=O)N[C@@H](CCCCNC(=S)Nc1ccc2c(c1)C(=O)OC21c2ccc(O)cc2Oc2cc(O)ccc21)C(N)=O)[C@@H](C)O)[C@@H](C)CC)C(C)(C)C [Peptide 14, Dcb-ZIZIT-Gln-His-leu-Ser-βAla-Lys (FITC)] ({Benzoyl(2,3-Cl2)}-[Tle]I[Tle]ITQH[dL]S[βAla]K(FITC)-NH2; C-terminus assumed)",aqueous solubility (qualitative),[1],good aqueous solubility
"CC[C@H](C)[C@H](NC(=O)[C@@H](NC(=O)c1cccc(Cl)c1Cl)C(C)(C)C)C(=O)N[C@H](C(=O)N[C@H](C(=O)N[C@H](C(=O)N[C@@H](CCC(N)=O)C(=O)N[C@@H](Cc1c[nH]cn1)C(=O)N[C@H](CC(C)C)C(=O)N[C@@H](Cc1c[nH]cn1)C(=O)NCCC(=O)N[C@@H](CCCCNC(=S)Nc1ccc2c(c1)C(=O)OC21c2ccc(O)cc2Oc2cc(O)ccc21)C(N)=O)[C@@H](C)O)[C@@H](C)CC)C(C)(C)C [Peptide 15, Dcb-ZIZIT-Gln-His-leu-His-βAla-Lys (FITC)] ({Benzoyl(2,3-Cl2)}-[Tle]I[Tle]ITQH[dL]H[βAla]K(FITC)-NH2; C-terminus assumed)",aqueous solubility (qualitative),[1],lower solubility
"CC[C@H](C)[C@H](NC(=O)[C@@H](NC(=O)c1cccc(Cl)c1Cl)C(C)(C)C)C(=O)N[C@H](C(=O)N[C@H](C(=O)N[C@H](C(=O)NCC(=O)N1CCC[C@H]1C(=O)N[C@@H](Cc1c[nH]cn1)C(=O)N[C@@H](CCC(=O)O)C(=O)N[C@@H](CCC(=O)O)C(=O)N[C@@H](Cc1ccc(O)cc1)C(=O)N[C@@H](CCCCNC(=S)Nc1ccc2c(c1)C(=O)OC21c2ccc(O)cc2Oc2cc(O)ccc21)C(N)=O)[C@@H](C)O)[C@@H](C)CC)C(C)(C)C [Peptide 9] ({Benzoyl(2,3-Cl2)}-[Tle]I[Tle]ITGPHEEYK(FITC)-NH2)",Kd,Calcineurin (GST-CN); KD (nM),32 to 189 nM
"CC[C@H](C)[C@H](NC(=O)[C@@H](NC(=O)c1cccc(Cl)c1Cl)C(C)(C)C)C(=O)N[C@H](C(=O)N[C@H](C(=O)N[C@H](C(=O)N[C@@H](Cc1ccc(O)cc1)C(=O)N[C@H](CCC(=O)O)C(=O)N[C@@H](Cc1ccc(F)cc1)C(=O)NCC(=O)NCCC(=O)N[C@@H](CCCCNC(=S)Nc1ccc2c(c1)C(=O)OC21c2ccc(O)cc2Oc2cc(O)ccc21)C(N)=O)[C@@H](C)O)[C@@H](C)CC)C(C)(C)C [Peptide 13, Dcb-ZIZIT-Tyr-glu-Fpa-Gly-βAla-Lys (FITC)] ({Benzoyl(2,3-Cl2)}-[Tle]I[Tle]ITY[dE][Phe(4-F)]G[βAla]K(FITC)-NH2; C-terminus assumed)",aqueous solubility (qualitative),[1],good aqueous solubility
"CC[C@H](C)[C@H](NC(=O)[C@@H](NC(=O)[C@@H](NC(=O)[C@@H](NC(=O)c1ccnc(Cl)c1Cl)C(C)(C)C)C1CCCCC1)C(C)(C)O)C(=O)N[C@H](C(=O)N[C@@H](CCC(N)=O)C(=O)N[C@@H](Cc1c[nH]cn1)C(=O)N[C@H](CC(C)C)C(=O)N[C@@H](CO)C(=O)NCCC(=O)N[C@@H](CCCCNC(=O)CC[C@@H]1NC(=O)[C@@H](CCCNC(=N)N)NC(=O)[C@H](CCCNC(=N)N)NC(=O)[C@@H](CCCNC(=N)N)NC(=O)[C@H](CCCNC(=N)N)NC(=O)[C@H](Cc2ccc3ccccc3c2)NC(=O)[C@@H](Cc2ccccc2)NC1=O)C(N)=O)[C@@H](C)O [Compound 44, (DCNA)-Tle-Chg-Bhv-Ile-Thr-Gln-His-(D-Leu)-Ser-βAla-Lys{[cyclo-(Gln-(D-Arg)-Arg-(D-Arg)-Arg-(2-Nal)-(D-Phe)]}-NH2] (I: X1-[Tle][Chg][Val(3-OH)]ITQH[dL]S[βAla]K-NH2 / II: cyclo([2Nal]R[dR]R[dR]E[dF]); amide I:11-II:6 (inferred); ring closure inferred)",solubility relative to CNI103,[1],less soluble
CC[C@H](C)[C@H](NC(=O)[C@@H](NC(=O)c1ccc(C)c(F)c1F)C(C)(C)C)C(=O)N[C@H](C(=O)N[C@H](C(=O)N[C@H](C(=O)NCC(=O)N1CCC[C@H]1C(=O)N[C@@H](Cc1c[nH]cn1)C(=O)N[C@@H](CCC(=O)O)C(=O)N[C@@H](CCC(=O)O)C(=O)N[C@@H](Cc1ccc(O)cc1)C(=O)N[C@@H](CCCCNC(=S)Nc1ccc2c(c1)C(=O)OC21c2ccc(O)cc2Oc2cc(O)ccc21)C(N)=O)[C@@H](C)O)[C@@H](C)CC)C(C)(C)C [Peptide 8] (X5-[Tle]I[Tle]ITGPHEEYK(FITC)-NH2),Kd,Calcineurin (GST-CN); read-out: KD,32 to 189 nM
"CC[C@H](C)[C@H](NC(=O)[C@@H](NC(=O)c1c(F)c(F)c(F)c(F)c1F)C(C)(C)C)C(=O)N[C@H](C(=O)N[C@H](C(=O)N[C@H](C(=O)NCC(=O)N1CCC[C@H]1C(=O)N[C@@H](Cc1c[nH]cn1)C(=O)N[C@@H](CCC(=O)O)C(=O)N[C@@H](CCC(=O)O)C(=O)N[C@@H](Cc1ccc(O)cc1)C(=O)N[C@@H](CCCCNC(=S)Nc1ccc2c(c1)C(=O)OC21c2ccc(O)cc2Oc2cc(O)ccc21)C(N)=O)[C@@H](C)O)[C@@H](C)CC)C(C)(C)C [Peptide 11] ({Benzoyl(2,3,4,5,6-F5)}-[Tle]I[Tle]ITGPHEEYK(FITC)-NH2)",Kd,Calcineurin (GST-CN); read-out: KD,32 to 189 nM
"CC(C)CN(C[C@@H](O)[C@H](Cc1ccccc1)NC(=O)O[C@H]1CCOC1)S(=O)(=O)c1ccc(N)cc1 [Amprenavir, reference compound]",Pgp Substrate,Caco-2 cell monolayers,Yes
"VIVIT: VIVIT (SEQ ID NO: 2) peptide, a CNBM blocking NFAT (Description: CN binding motif)",half-life in human serum,Serum stability assay,~1 h
same,time to complete degradation in human serum,Serum stability assay,≤ 6 h
CC[C@H](C)[C@H](NC(=O)[C@@H](NC(=O)c1cc(F)c(F)c(F)c1F)C(C)(C)C)C(=O)N[C@H](C(=O)N[C@H](C(=O)N[C@H](C(=O)NCC(=O)N1CCC[C@H]1C(=O)N[C@@H](Cc1c[nH]cn1)C(=O)N[C@@H](CCC(=O)O)C(=O)N[C@@H](CCC(=O)O)C(=O)N[C@@H](Cc1ccc(O)cc1)C(=O)N[C@@H](CCCCNC(=S)Nc1ccc2c(c1)C(=O)OC21c2ccc(O)cc2Oc2cc(O)ccc21)C(N)=O)[C@@H](C)O)[C@@H](C)CC)C(C)(C)C [Peptide 7] (X4-[Tle]I[Tle]ITGPHEEYK(FITC)-NH2),Kd,Calcineurin (GST-CN); KD (nM),32 to 189 nM
"CC[C@H](C)[C@H](NC(=O)[C@@H](NC(=O)c1cccc(Cl)c1Cl)C(C)(C)C)C(=O)N[C@H](C(=O)N[C@H](C(=O)N[C@H](C(=O)NCCOCCOCC(=O)N[C@@H](CCCCNC(=S)Nc1ccc2c(c1)C(=O)OC21c2ccc(O)cc2Oc2cc(O)ccc21)C(N)=O)[C@@H](C)O)[C@@H](C)CC)C(C)(C)C [Peptide 12, Dcb-ZIZIT-miniPEG-Lys (FITC)] ({Benzoyl(2,3-Cl2)}-[Tle]I[Tle]IT[AEEA]K(FITC)-NH2; C-terminus assumed)",decrease in binding affinity on removal of C-terminal pentapeptide (GPHEE),Calcineurin (GST-CN); peptide 12 versus peptide 9,17 fold
CC[C@H](C)[C@H](NC(=O)[C@@H](NC(=O)c1ccc(Br)c(Cl)c1)C(C)(C)C)C(=O)N[C@H](C(=O)N[C@H](C(=O)N[C@H](C(=O)NCC(=O)N1CCC[C@H]1C(=O)N[C@@H](Cc1c[nH]cn1)C(=O)N[C@@H](CCC(=O)O)C(=O)N[C@@H](CCC(=O)O)C(=O)N[C@@H](Cc1ccc(O)cc1)C(=O)N[C@@H](CCCCNC(=S)Nc1ccc2c(c1)C(=O)OC21c2ccc(O)cc2Oc2cc(O)ccc21)C(N)=O)[C@@H](C)O)[C@@H](C)CC)C(C)(C)C [Peptide 10] (X6-[Tle]I[Tle]ITGPHEEYK(FITC)-NH2),Kd,Calcineurin (GST-CN); read-out: KD,32 to 189 nM
